According to the kinase profiling compilation of Christmann-Franck et al. (2016):

Legend:
Assay in all cases: radiometric filter-binding kinase assay
[1] = system: AKT2 (human), P31751 [S474D]
[2] = biological target: AURKA (human) (UniProt O14965)
[3] = biological target: BTK (human) (UniProt Q06187)
[4] = biological target: CLK2 (human) (UniProt P49760)
[5] = biological target: CSNK1D (human) (UniProt P48730)
[6] = biological target: CSNK2A1 (human) (UniProt P68400)
[7] = biological target: DYRK2 (human) (UniProt Q92630)
[8] = biological target: FLT1 (human) (UniProt P17948)
[9] = biological target: HIPK1 (human) (UniProt Q86Z02)
[10] = biological target: HIPK2 (human) (UniProt Q9H2X6)
HIPK2 (human), sequence (Q9H2X6 whole entry, looked up): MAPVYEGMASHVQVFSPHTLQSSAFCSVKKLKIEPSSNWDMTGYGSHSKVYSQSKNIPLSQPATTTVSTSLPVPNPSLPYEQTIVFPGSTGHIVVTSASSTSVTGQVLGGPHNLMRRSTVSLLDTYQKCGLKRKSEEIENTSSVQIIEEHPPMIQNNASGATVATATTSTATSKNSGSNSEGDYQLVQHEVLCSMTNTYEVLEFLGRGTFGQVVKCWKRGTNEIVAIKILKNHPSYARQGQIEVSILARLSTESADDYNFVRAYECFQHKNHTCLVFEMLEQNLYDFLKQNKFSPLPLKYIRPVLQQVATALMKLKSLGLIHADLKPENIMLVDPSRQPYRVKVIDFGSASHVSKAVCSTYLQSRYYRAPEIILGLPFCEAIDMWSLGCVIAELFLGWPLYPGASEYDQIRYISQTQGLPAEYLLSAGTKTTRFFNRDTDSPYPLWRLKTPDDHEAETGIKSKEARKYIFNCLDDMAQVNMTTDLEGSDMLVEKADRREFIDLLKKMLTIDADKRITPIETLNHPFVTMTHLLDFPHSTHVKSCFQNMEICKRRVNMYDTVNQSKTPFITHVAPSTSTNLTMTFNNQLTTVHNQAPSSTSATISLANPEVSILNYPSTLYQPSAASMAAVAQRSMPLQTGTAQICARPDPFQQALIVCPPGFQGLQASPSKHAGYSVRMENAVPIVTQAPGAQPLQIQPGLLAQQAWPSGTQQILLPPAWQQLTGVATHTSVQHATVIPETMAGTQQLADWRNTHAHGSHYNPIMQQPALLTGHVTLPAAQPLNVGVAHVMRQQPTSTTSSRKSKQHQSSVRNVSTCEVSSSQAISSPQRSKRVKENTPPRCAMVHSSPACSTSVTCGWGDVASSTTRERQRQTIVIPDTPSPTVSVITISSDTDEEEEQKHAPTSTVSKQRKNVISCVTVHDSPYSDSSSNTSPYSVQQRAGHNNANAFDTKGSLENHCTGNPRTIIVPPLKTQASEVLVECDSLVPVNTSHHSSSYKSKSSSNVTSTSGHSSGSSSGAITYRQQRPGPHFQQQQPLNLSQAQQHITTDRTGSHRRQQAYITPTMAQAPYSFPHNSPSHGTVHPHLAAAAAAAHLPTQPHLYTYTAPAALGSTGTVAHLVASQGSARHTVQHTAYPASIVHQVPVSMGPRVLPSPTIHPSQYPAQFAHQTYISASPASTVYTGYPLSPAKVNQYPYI

[11] = biological target: INSR (human) (UniProt P06213)
[12] = biological target: INSRR (human) (UniProt P14616)
[13] = biological target: IRAK4 (human) (UniProt Q9NWZ3)
[14] = biological target: JAK2 JH1 JH2 (human) (UniProt O60674)
[15] = biological target: MAP3K1 (human) (UniProt Q13233)
MAP3K1 (human), sequence (Q13233 whole entry, looked up): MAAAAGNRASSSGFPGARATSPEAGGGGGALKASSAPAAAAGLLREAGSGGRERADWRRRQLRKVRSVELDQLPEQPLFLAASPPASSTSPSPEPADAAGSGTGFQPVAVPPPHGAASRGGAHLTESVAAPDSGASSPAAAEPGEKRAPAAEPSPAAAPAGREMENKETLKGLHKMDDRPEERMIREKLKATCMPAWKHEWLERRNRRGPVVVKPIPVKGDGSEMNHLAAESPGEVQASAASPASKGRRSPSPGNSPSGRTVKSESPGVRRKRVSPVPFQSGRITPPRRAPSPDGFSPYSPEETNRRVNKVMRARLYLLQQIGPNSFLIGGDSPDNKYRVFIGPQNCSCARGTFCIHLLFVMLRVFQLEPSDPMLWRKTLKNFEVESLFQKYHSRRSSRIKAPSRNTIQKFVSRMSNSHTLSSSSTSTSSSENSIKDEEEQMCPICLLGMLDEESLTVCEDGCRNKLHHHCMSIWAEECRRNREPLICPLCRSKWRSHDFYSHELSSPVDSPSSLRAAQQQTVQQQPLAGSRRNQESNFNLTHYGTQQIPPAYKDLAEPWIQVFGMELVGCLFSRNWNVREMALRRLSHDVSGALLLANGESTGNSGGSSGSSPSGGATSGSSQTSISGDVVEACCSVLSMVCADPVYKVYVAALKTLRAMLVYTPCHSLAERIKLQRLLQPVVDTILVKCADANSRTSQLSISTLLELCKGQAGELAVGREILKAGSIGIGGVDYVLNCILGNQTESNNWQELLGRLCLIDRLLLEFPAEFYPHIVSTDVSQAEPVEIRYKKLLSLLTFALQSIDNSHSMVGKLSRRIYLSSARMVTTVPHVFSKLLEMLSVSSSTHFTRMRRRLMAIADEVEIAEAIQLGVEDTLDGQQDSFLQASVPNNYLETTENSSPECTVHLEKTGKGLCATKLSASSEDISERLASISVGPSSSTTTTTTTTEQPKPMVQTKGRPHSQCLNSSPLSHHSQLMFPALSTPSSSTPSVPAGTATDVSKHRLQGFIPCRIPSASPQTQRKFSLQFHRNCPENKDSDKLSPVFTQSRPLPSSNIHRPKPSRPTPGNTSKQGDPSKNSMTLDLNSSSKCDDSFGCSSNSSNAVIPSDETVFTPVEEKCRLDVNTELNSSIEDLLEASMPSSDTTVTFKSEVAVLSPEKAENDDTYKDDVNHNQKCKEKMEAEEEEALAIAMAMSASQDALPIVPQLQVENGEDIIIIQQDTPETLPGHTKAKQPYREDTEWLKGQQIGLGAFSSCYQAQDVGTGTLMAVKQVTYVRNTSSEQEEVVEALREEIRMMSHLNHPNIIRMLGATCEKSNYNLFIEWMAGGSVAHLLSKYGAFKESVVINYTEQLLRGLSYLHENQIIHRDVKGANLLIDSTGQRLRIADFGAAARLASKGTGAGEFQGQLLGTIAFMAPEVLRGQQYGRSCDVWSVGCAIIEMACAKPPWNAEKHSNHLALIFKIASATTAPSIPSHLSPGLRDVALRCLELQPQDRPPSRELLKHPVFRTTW

[16] = biological target: MAP3K9 (human) (UniProt P80192)
[17] = biological target: MAPK1 (human) (UniProt P28482)
[18] = biological target: MAPK11 (human) (UniProt Q15759)
[19] = biological target: MAPK14 (human) (UniProt Q16539)
[20] = biological target: MAPK15 (human) (UniProt Q8TD08)
[21] = biological target: MAPKAPK3 (human) (UniProt Q16644)
[22] = biological target: MARK3 (human) (UniProt P27448)
[23] = biological target: MARK4 (human) (UniProt Q96L34)
[24] = biological target: MKNK2 (human) (UniProt Q9HBH9)
[25] = biological target: NEK2 (human) (UniProt P51955)
[26] = biological target: NEK6 (human) (UniProt Q9HC98)
[27] = biological target: NTRK1 (human) (UniProt P04629)
[28] = biological target: PRKCA (human) (UniProt P17252)
[29] = biological target: RIPK2 (human) (UniProt O43353)
[30] = biological target: RPS6KA1 KD1 KD2 (human) (UniProt Q15418)
RPS6KA1 KD1 KD2 (human), sequence (Q15418 whole entry, looked up): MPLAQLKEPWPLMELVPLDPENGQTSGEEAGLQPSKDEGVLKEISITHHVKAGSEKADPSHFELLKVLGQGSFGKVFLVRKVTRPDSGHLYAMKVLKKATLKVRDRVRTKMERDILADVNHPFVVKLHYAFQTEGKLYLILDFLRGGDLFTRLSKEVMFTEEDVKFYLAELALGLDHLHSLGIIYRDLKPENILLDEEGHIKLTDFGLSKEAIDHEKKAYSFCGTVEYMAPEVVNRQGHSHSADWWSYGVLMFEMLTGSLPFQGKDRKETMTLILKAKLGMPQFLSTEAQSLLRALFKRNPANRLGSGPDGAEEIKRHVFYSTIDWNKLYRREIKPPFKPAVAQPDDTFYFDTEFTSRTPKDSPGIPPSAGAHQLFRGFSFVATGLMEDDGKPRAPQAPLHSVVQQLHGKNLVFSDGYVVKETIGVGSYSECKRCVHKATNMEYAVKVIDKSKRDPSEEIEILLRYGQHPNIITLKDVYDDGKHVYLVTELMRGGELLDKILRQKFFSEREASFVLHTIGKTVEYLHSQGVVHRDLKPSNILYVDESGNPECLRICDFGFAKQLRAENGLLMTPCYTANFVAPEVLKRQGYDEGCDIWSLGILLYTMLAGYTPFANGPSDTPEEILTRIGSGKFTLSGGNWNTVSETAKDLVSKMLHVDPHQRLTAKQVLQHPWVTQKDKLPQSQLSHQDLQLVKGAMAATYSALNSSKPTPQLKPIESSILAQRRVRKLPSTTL

[31] = biological target: RPS6KA5 KD1 KD2 (human) (UniProt O75582)
[32] = system: RPS6KB1 (human), P23443 [T412E]
[33] = biological target: SRPK1 (human) (UniProt Q96SB4)
[34] = biological target: STK11 CAB39 STRADA (human) (UniProt Q9Y376+Q7RTN6+Q15831)
STK11 CAB39 STRADA (human), sequence (Q15831 whole entry, looked up): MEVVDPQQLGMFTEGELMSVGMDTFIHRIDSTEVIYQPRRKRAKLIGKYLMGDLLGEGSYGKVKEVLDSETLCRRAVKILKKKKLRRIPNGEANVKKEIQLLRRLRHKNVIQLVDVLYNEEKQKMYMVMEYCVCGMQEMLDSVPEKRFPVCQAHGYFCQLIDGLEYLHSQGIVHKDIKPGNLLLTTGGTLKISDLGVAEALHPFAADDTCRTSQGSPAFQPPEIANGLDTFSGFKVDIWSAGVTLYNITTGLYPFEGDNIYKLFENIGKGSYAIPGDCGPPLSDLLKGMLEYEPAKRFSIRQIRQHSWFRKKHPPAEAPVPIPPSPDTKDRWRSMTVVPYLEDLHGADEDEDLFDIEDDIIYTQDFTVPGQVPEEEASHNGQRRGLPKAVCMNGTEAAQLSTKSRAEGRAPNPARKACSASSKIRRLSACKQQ
STK11 CAB39 STRADA (human), sequence (Q7RTN6 whole entry, looked up): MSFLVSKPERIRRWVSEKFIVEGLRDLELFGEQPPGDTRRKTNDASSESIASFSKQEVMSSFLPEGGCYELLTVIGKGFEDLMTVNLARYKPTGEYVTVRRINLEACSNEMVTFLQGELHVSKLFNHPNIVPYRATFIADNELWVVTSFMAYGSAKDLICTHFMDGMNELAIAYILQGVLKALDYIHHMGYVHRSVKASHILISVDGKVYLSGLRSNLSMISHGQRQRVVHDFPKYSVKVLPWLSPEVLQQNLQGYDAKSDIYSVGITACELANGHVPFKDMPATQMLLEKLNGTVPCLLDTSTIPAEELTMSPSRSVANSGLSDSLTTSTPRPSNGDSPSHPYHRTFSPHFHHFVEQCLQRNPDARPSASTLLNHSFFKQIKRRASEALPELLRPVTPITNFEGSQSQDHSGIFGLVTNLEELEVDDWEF
STK11 CAB39 STRADA (human), sequence (Q9Y376 whole entry, looked up): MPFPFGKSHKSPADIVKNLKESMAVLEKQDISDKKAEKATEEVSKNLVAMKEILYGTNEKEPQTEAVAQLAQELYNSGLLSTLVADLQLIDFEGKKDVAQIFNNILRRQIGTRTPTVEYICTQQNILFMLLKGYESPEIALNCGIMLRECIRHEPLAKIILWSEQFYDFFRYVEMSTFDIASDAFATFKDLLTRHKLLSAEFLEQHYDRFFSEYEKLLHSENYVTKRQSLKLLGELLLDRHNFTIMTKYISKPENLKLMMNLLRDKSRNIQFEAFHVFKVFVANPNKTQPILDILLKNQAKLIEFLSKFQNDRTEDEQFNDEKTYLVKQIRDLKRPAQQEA

[35] = biological target: YES1 (human) (UniProt P07947)

AURKA (human), sequence (O14965 whole entry, looked up): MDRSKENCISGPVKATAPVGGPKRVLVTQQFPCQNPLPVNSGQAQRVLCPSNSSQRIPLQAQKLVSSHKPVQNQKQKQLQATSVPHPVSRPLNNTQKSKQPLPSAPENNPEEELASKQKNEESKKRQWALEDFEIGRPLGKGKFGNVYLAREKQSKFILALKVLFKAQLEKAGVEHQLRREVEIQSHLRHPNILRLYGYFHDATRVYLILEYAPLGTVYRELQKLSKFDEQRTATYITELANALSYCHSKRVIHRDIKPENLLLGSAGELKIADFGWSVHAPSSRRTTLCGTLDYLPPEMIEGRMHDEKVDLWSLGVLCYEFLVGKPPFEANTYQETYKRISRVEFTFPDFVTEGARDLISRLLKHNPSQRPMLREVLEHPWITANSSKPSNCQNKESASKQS

residual activity ([1]; compound 0.01 µM): 97%
residual activity ([1]; compound 0.1 µM): 103%
residual activity ([1]; compound 1.0 µM): 94%
residual activity ([2]; compound 0.01 µM): 108%
residual activity ([2]; compound 0.1 µM): 128%
residual activity ([2]; compound 1.0 µM): 96%
residual activity ([3]; compound 0.01 µM): 108%
residual activity ([3]; compound 0.1 µM): 103%
residual activity ([3]; compound 1.0 µM): 101%
residual activity ([4]; compound 0.01 µM): 101%
residual activity ([4]; compound 0.1 µM): 82%
residual activity ([4]; compound 1.0 µM): 40%
residual activity ([5]; compound 0.01 µM): 92%
residual activity ([5]; compound 0.1 µM): 93%
residual activity ([5]; compound 1.0 µM): 59%
residual activity ([6]; compound 0.01 µM): 99%
residual activity ([6]; compound 0.1 µM): 127%
residual activity ([6]; compound 1.0 µM): 102%
residual activity ([7]; compound 0.01 µM): 104%
residual activity ([7]; compound 0.1 µM): 92%
residual activity ([7]; compound 1.0 µM): 90%
residual activity ([8]; compound 0.01 µM): 109%
residual activity ([8]; compound 0.1 µM): 88%
residual activity ([8]; compound 1.0 µM): 108%
residual activity ([9]; compound 0.01 µM): 96%
residual activity ([9]; compound 0.1 µM): 96%
residual activity ([9]; compound 1.0 µM): 92%
residual activity ([10]; compound 0.01 µM): 100%
residual activity ([10]; compound 0.1 µM): 116%
residual activity ([10]; compound 1.0 µM): 105%
residual activity ([11]; compound 0.01 µM): 107%
residual activity ([11]; compound 1.0 µM): 100%
residual activity ([12]; compound 0.01 µM): 91%
residual activity ([12]; compound 0.1 µM): 104%
residual activity ([12]; compound 1.0 µM): 94%
residual activity ([13]; compound 0.01 µM): 90%
residual activity ([13]; compound 0.1 µM): 90%
residual activity ([13]; compound 1.0 µM): 83%
residual activity ([14]; compound 0.01 µM): 114%
residual activity ([14]; compound 0.1 µM): 100%
residual activity ([14]; compound 1.0 µM): 100%
residual activity ([15]; compound 0.01 µM): 97%
residual activity ([15]; compound 0.1 µM): 108%
residual activity ([15]; compound 1.0 µM): 91%
residual activity ([16]; compound 0.01 µM): 90%
residual activity ([16]; compound 0.1 µM): 80%
residual activity ([16]; compound 1.0 µM): 75%
residual activity ([17]; compound 0.01 µM): 92%
residual activity ([17]; compound 0.1 µM): 96%
residual activity ([17]; compound 1.0 µM): 102%
residual activity ([18]; compound 0.01 µM): 106%
residual activity ([18]; compound 0.1 µM): 121%
residual activity ([18]; compound 1.0 µM): 107%
residual activity ([19]; compound 0.01 µM): 109%
residual activity ([19]; compound 0.1 µM): 121%
residual activity ([19]; compound 1.0 µM): 114%
residual activity ([21]; compound 0.01 µM): 97%
residual activity ([21]; compound 0.1 µM): 114%
residual activity ([21]; compound 1.0 µM): 97%
residual activity ([22]; compound 0.01 µM): 83%
residual activity ([22]; compound 0.1 µM): 87%
residual activity ([22]; compound 1.0 µM): 86%
residual activity ([23]; compound 0.01 µM): 127%
residual activity ([23]; compound 0.1 µM): 111%
residual activity ([23]; compound 1.0 µM): 119%
residual activity ([24]; compound 0.01 µM): 95%
residual activity ([24]; compound 1.0 µM): 91%
residual activity ([25]; compound 0.01 µM): 97%
residual activity ([25]; compound 0.1 µM): 97%
residual activity ([25]; compound 1.0 µM): 96%
residual activity ([26]; compound 0.01 µM): 114%
residual activity ([26]; compound 0.1 µM): 113%
residual activity ([26]; compound 1.0 µM): 101%
residual activity ([27]; compound 0.01 µM): 80%
residual activity ([27]; compound 0.1 µM): 83%
residual activity ([27]; compound 1.0 µM): 81%
residual activity ([28]; compound 0.01 µM): 87%
residual activity ([28]; compound 0.1 µM): 89%
residual activity ([28]; compound 1.0 µM): 94%
residual activity ([29]; compound 0.01 µM): 89%
residual activity ([29]; compound 0.1 µM): 87%
residual activity ([29]; compound 1.0 µM): 89%
residual activity ([30]; compound 0.01 µM): 99%
residual activity ([30]; compound 0.1 µM): 102%
residual activity ([30]; compound 1.0 µM): 65%
residual activity ([31]; compound 0.01 µM): 114%
residual activity ([31]; compound 0.1 µM): 114%
residual activity ([31]; compound 1.0 µM): 95%
residual activity ([32]; compound 0.01 µM): 125%
residual activity ([32]; compound 0.1 µM): 104%
residual activity ([32]; compound 1.0 µM): 103%
residual activity ([33]; compound 0.01 µM): 100%
residual activity ([33]; compound 0.1 µM): 90%
residual activity ([33]; compound 1.0 µM): 102%
residual activity ([34]; compound 0.01 µM): 107%
residual activity ([34]; compound 0.1 µM): 132%
residual activity ([34]; compound 1.0 µM): 105%
residual activity ([35]; compound 0.01 µM): 81%
residual activity ([35]; compound 0.1 µM): 87%
residual activity ([35]; compound 1.0 µM): 74%
SMILES: O=C(Nc1nc2cc(C(F)(F)F)cc(NC3CC3)n2n1)c1cccnc1
residual activity ([20]; compound 0.01 µM): 102%
residual activity ([20]; compound 0.1 µM): 110%
residual activity ([20]; compound 1.0 µM): 102%
